Laboratory results published in patent publication US9023761B2, “Compositions and methods for blocking ethylene response in plants using 3-cyclopropyl-1-enyl-propanoic acid salt” (Yissum Research Development Company of the Hebrew …, priority 2007, dated 2015).
Where two headings read alike, the source gives them in different places.

Key:
[1] = background statement; cited from earlier work
Peach fruit = Peach fruit firmness / shelf life after spraying; format: in vivo
Procedure: Each kind of the model plants was exposed to different concentrations of CPAS in an aqueous solution for 6-18 h as a pre-treatment following exposure for 24 h to different concentration of ethylene. In the case of banana and avocado fruits, the peel was brushed with different concentrations of CPAS aqueous solution, in the presence of commercially available Tween 20 surfactant (0.025%) as pre-ethylene treatment, and the delay in days elapsed until color breakdown (from green to yellow in banana—Table 1, FIG. 4; and from green to black in avocado—Table 1, FIG. 6) over air control was recorded as a criterion of the efficiency of the ethylene antagonist. In the case of peach fruit, the surfactant BAS 70 (generously supplied by BASF, Germany) was used. The results were recorded after incubation of 2-4 days in controlled conditions (Table 1, FIG. 11). […] The number of days of the delay of senescence of the tested plant materials over water control was recorded, by following the visual wilting of the flowers. […] CPAS in aqueous solution, was either pre-treated by direct loading of the treatment solutions into the proximal side of the explant for 17 h, or by dipping the whole explant in the tested solutions for 30 to 60 sec in the presence of commercially available Tween 20 TM surfactant (0.025%. In all cases, a significant delaying action of ethylene-induced responses, was recorded in all the plant systems examined (Table 1, FIG. 7). In further examples, the concentrations of the CPAS aqueous solutions were used in the range of the results obtained in the above experiment.
Peach fruits were harvested and brought to the lab and immediately sprayed with different concentrations of CPAS solution (K-phosphate buffer, 20 mM, and 0.1% organo-silicone surfactant, namely BAS 90370S by BASF Germany), and kept at 22° C. and 90% humidity for up to 4 days. […] Firmness was recorded by a penetrometer (chatillon, using a disc of 8 mm diameter), after removing a 15 mm square peel strip in order to allow measuring the firmness directly on the flesh of the fruit.

[2] = Solubility and stability in water; format: physicochemical
Petunia flower = assay: Petunia cut flower vase life after ethylene; format: in vivo
Procedure: Each kind of the model plants was exposed to different concentrations of CPAS in an aqueous solution for 6-18 h as a pre-treatment following exposure for 24 h to different concentration of ethylene. In the case of banana and avocado fruits, the peel was brushed with different concentrations of CPAS aqueous solution, in the presence of commercially available Tween 20 surfactant (0.025%) as pre-ethylene treatment, and the delay in days elapsed until color breakdown (from green to yellow in banana—Table 1, FIG. 4; and from green to black in avocado—Table 1, FIG. 6) over air control was recorded as a criterion of the efficiency of the ethylene antagonist. In the case of peach fruit, the surfactant BAS 70 (generously supplied by BASF, Germany) was used. The results were recorded after incubation of 2-4 days in controlled conditions (Table 1, FIG. 11). When using cut flower models (FIGS. 1-3) CPAS aqueous solutions±surfactants was applied by loading either the cut flower or the isolated petals for 18 h in CPAS aqueous solutions prior to ethylene treatment. The number of days of the delay of senescence of the tested plant materials over water control was recorded, by following the visual wilting of the flowers. […] CPAS in aqueous solution, was either pre-treated by direct loading of the treatment solutions into the proximal side of the explant for 17 h, or by dipping the whole explant in the tested solutions for 30 to 60 sec in the presence of commercially available Tween 20 TM surfactant (0.025%. In all cases, a significant delaying action of ethylene-induced responses, was recorded in all the plant systems examined (Table 1, FIG. 7). In further examples, the concentrations of the CPAS aqueous solutions were used in the range of the results obtained in the above experiment. […]

Avocado fruit = assay: Ethylene-induced ripening of 'Hass' avocado fruit (peel color, firmness, peduncle abscission); format: in vivo
Procedure: (§1) Each kind of the model plants was exposed to different concentrations of CPAS in an aqueous solution for 6-18 h as a pre-treatment following exposure for 24 h to different concentration of ethylene. In the case of banana and avocado fruits, the peel was brushed with different concentrations of CPAS aqueous solution, in the presence of commercially available Tween 20 surfactant (0.025%) as pre-ethylene treatment, and the delay in days elapsed until color breakdown (from green to yellow in banana—Table 1, FIG. 4; and from green to black in avocado—Table 1, FIG. 6) over air control was recorded as a criterion of the efficiency of the ethylene antagonist. In the case of peach fruit, the surfactant BAS 70 (generously supplied by BASF, Germany) was used. The results were recorded after incubation of 2-4 days in controlled conditions (Table 1, FIG. 11). When using cut flower models (FIGS. 1-3) CPAS aqueous solutions±surfactants was applied by loading either the cut flower or the isolated petals for 18 h in CPAS aqueous solutions prior to ethylene treatment. The number of days of the delay of senescence of the tested plant materials over water control was recorded, by following the visual wilting of the flowers. Tomato seedlings were sprayed with CPAS aqueous solutions in the presence of commercial available ‘Kinetic’ organo-silicone surfactant blend, kept for calibration in a growth chamber for 8-10 hr before spraying with CPAS solution or before loading CPSA by excised seedlings via their lower stem cut surface (Table 1, FIG. 10) in order to antagonize ethylene-induced epinasty of leaf petioles (Table 1, FIGS. 8-9). In the case of citrus leaf explants, abscission was tested at the laminar abscission zone. CPAS in aqueous solution, was either pre-treated by direct loading of the treatment solutions into the proximal side of the explant for 17 h, or by dipping the whole explant in the tested solutions for 30 to 60 sec in the presence of commercially available Tween 20 TM surfactant (0.025%. In all cases, a significant delaying action of ethylene-induced responses, was recorded in all the plant systems examined (Table 1, FIG. 7). In further examples, the concentrations of the CPAS aqueous solutions were used in the range of the results obtained in the above experiment.
“Hass” avocado fruits with long peduncles were loaded with water soluble CPAS by dipping the peduncle cut surface for 30 hr in aqueous solution containing 100 μg/mL^−1 of CPAS. The untreated fruits with peduncles immersed in water. After the treatment with CPAS all fruits were exposed for 24 hr to the ethylene (250 μL L^−1). Afterwards the fruits were held at 24° C. and 92% RH for assessment their maturity parameters (peel color change and pulp firmness) and abscission of the peduncle. Photos were taken on day 5 after treatment (untreated—FIG. 6A, treated FIG. 6B).

Banana fruit = assay: Ethylene-induced ripening of green banana fruit (peel color, firmness); format: in vivo
Procedure: as §1
Banana fruits were treated by brushing with aqueous solution of water soluble CPAS (200 μg mL^−1). After 18 hr all treated and untreated fruits were exposed to ethylene (300 μL^−1) to hasten ripening. All fruits were ventilated and held in air at 22° C. and 92% RH for assessment of their ripening value. Photos were taken on day 12 (untreated—FIG. 4A, treated FIG. 4B).
Additionally, banana fruits were treated by brushing with aqueous solution of CPAS ([…], and commercially available surfactant Tween 20 [0.025%]) and after 18 hr were exposed to ethylene (300 μL/L^−1) for 24 hr to hasten ripening. Fruits were kept at 24° C. and 92% RH. The fruits kept in air and treated by CPAS only served as comparative ones. Results were collected on day 7 (FIG. 5A).

Carnation flower = assay: Carnation cut flower vase life; format: in vivo
Procedure: as §1
Carnation cut flowers treated by dipping cut surface for 18 hr in aqueous solution containing 8 μg mL^−1 of CPAS. Untreated flowers were held in water. After treatment all flowers are kept in water at 22° C. and 80% RH under continuous fluorescent light for assessment of their vase life. Photo was taken on day 14.

Carnation flower petal = assay: Ethylene-induced senescence of isolated carnation petals; format: in vivo
Procedure: as §1
The following test was designed to further establish the ability of water soluble CPAS in aqueous solution to delay the ethylene-induced senescence of isolated carnation petals. The experiment was carried out in a growth chamber to ensure optimal environmental conditions (light, temperature and relative humidity). Carnation petals were loaded with CPAS by dipping their cut surface for 18 hr in aqueous solution containing 81 μg mL^−1 of CPAS. Untreated petals that were held in water. […]

Citrus leaf explants = assay: Abscission of citrus leaf explants; format: in vivo; settings: for Minimum apparent concentration / Protection time (days over control): Citrus leaf abscission, ethylene treatment +
Procedure: as §1
The application of water soluble CPAS to citrus leaf explants was studied under air, antagonizing endogenous ethylene-induced abscission, comparing two methods of applications; either by dipping their petiole cut surfaces for 6 h in CPAS aqueous solution, or by dipping the whole explants for 30 sec. in the same treatment solution plus or minus a surfactant. In this experiment Tween-20 (0.025%) was chosen as surfactant, but any un-ionic surfactant may be chosen. The experiment indicates, as expected, that surfactants improve the penetration into plant tissues. However, if application is preferred via a cut surface like with cut flowers, there is no need to add a surfactant to the treatment solution (FIG. 7).
FIG. 7 represents a set of three figures, wherein explants are loaded with CPAS by dipping their petiole cut surfaces for 6 h in CPAS aqueous solution (A); dipped for 30 sec. in the same treatment solution (B); and treated as in B, but including Tween-20 [0.025%] (C).

Tomato leaf petiole = assay: Ethylene-induced epinasty of tomato leaf petioles; format: in vivo; parameters: key to Protection (effect grade): + = weak effect; ++ = medium effect; +++ = strong effect; settings: ethylene treatment +
Procedure: as §1
For the spraying experiment (FIG. 8) tomato plants from green house (3 weeks old) were brought for calibration in a growth chamber (8-10 hr, at 22° C. and 80% RH, under continuous fluorescent light). […]
In a second experiment the changes of the degree of the petiole from the branch, that expresses the epinastic response, was calculated (FIG. 9). […]

[3] = Peach fruit, firmness, spraying, ethylene treatment −
[4] = Petunia flower, vase life, loading, ethylene treatment +
[5] = Avocado fruit, peel color, loading, ethylene treatment +
[6] = avocado, 100 μg/mL loading via peduncle 30 hr, ethylene 250 μL L^−1 24 hr
[7] = Banana fruit, peel color, brushing, ethylene treatment +
[8] = Carnation flower, vase life, loading, ethylene treatment −
[9] = Carnation flower petal, senescence, loading, ethylene treatment +

CC1=CC1 [1-MCP, 1-methylcyclopropene]
Solubility in water [1]: insolubility in water

O=C([O-])CCC1=CC1.[Na+] [CPAS, cyclopropyl-1-enyl-propanoic acid sodium salt]
Minimum apparent concentration (Peach fruit; [3]): 10 µg/mL
Protection time (days over control) (Peach fruit; [3]): 4 days
Shelf life of climacteric fruit (peach) (Peach fruit; spraying with surfactant, 22° C., up to 4 days): expand the shelf life
Solubility in water [2]: soluble
Stability in water [2]: stable in water
Minimum apparent concentration (Petunia flower; [4]): 98 µg/mL
Protection time (days over control) (Petunia flower; [4]): 17 days
Prolonging the vase-life of petunia cut flowers (Petunia flower; summary statement): ≥ 14 days
Minimum apparent concentration (Avocado fruit; [5]): 100 µg/mL
Protection time (days over control) (Avocado fruit; [5]): 5 days
Fruit softening (Avocado fruit; [6]): a little delaying effect
Peduncle abscission (Avocado fruit; [6]): significantly delayed
Skin color development (Avocado fruit; [6]): significantly delayed
Delay of color change of 'Hass' avocado fruit (Avocado fruit; summary statement): ≥ 5 days
Minimum apparent concentration (Banana fruit; [7]): 200 µg/mL
Protection time (days over control) (Banana fruit; [7]): 6 days
Delaying the decrease in fruit firmness (Banana fruit; banana, 1000 μg mL^−1 brushing, ethylene 24 hr): ineffective
Delay of color break of the fruit (Banana fruit; banana, brushing, ethylene, effective at the higher concentrations): significantly delayed
Delay of banana peel de-greening (Banana fruit; summary statement): ≥ 12 days
Longevity of carnation cut flowers during vase life (Carnation flower; 8 μg mL^−1 dipping cut surface 18 hr, day 14, vs untreated): longevity increase
Minimum apparent concentration (Carnation flower; [8]): 0.8 µg/mL
Protection time (days over control) (Carnation flower; [8]): 10 days
Prolonging the vase-life of carnation cut flowers (Carnation flower; summary statement): ≥ 14 days
Ethylene antagonistic effect on petal senescence (Carnation flower petal; 81 μg mL^−1 loading 18 hr, ethylene 5 μl L^−1 24 hr, measured after 6 days): highly significant
Minimum apparent concentration (Carnation flower petal; [9]): 81 µg/mL
Protection time (days over control) (Carnation flower petal; [9]): 11 days
Toxic symptoms (Carnation flower petal; carnation petals, 81 μg mL^−1 loading 18 hr): No toxic symptoms were observed
Minimum apparent concentration (Citrus leaf explants; dipping): 42 µg/mL
Protection time (days over control) (Citrus leaf explants; dipping): 2 days
Minimum apparent concentration (Citrus leaf explants; loading): 32 µg/mL
Protection time (days over control) (Citrus leaf explants; loading): 7 days
Delay of abscission of citrus leaf explants (Citrus leaf explants; summary statement): ≥ 7 days
Minimum apparent concentration (Tomato leaf petiole; loading): 9 µg/mL
Protection (effect grade) (Tomato leaf petiole; loading): *+++
Minimum apparent concentration (Tomato leaf petiole; spraying): 160 µg/mL
Protection (effect grade) (Tomato leaf petiole; spraying): *+++
